The structures appear in SMILES notation.

For orientation: IC50 means the point on the concentration scale where inhibition reaches its midpoint.

The experiment deals with T1, NHE-1 (Homo sapiens, UniProt P19634).
T1 construct: endogenous in cells; host or cells: HT-29
As to the kind of experiment: Evaluation of NHE-1 Inhibition (pHi) in HT-29 cells. The class given is cell-based. The conditions noted are these: BCECF dye, 50% inhibition of the intracellular pH recovery, read-out: NHE1 HT29 pHi IC50. In a few lines:
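Intracellular pH measured with BCECF in HT-29 cells after 24 h culture. Cells dye-loaded 30 min at 37° C, then acid-loaded with NH4Cl-containing choline buffer (pH 7.5) for 30 min at RT. Compounds added on an FDSS6000 fluorescence reader.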

T1 sequence (P19634 whole entry): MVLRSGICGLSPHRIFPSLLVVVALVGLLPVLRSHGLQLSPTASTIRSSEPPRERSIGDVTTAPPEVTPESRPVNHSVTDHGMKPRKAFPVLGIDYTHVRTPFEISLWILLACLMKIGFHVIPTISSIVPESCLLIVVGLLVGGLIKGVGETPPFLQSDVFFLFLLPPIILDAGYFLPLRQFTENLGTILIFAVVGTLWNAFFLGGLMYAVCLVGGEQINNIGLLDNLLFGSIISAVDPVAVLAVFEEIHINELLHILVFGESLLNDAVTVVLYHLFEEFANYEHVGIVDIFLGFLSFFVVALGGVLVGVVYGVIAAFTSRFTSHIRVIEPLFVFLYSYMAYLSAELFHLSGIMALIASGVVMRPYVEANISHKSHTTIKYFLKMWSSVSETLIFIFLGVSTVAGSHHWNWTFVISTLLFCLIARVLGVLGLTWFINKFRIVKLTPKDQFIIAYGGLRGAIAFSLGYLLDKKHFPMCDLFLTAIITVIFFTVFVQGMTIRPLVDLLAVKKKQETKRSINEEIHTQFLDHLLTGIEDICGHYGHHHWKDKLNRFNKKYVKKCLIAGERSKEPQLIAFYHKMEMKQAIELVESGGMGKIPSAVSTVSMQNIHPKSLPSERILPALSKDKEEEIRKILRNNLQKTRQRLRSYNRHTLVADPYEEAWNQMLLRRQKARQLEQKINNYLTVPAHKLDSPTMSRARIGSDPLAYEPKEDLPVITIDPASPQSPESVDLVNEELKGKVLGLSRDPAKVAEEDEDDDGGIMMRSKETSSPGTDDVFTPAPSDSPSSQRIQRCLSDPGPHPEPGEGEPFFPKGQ

With `N=C(N)NC(=O)c1ccc(C2CCN(C(=O)CN)CC2)c(C(F)(F)F)c1` [N-{4-[1-(2-Amino-acetyl)-piperidin-4-yl]-3-trifluoromethyl-benzoyl}-guanidine], the IC50 stood at 4 nM. For the compound `COc1cc(C(=O)N2CCC(c3ccc(C(=O)NC(=N)N)cc3C(F)(F)F)CC2)ccc1-c1cccnc1` [N-{4-[1-(3-Methoxy-4-pyridin-3-yl-benzoyl)-piperidin-4-yl]-3-trifluoromethyl-benzoyl}-guanidine], the IC50 worked out at 66 nM.

Source of the values: patent publication US20110118262A1, “Pyrrolidinyl and Piperidinyl Compounds Useful as NHE-1 Inhibitiors” (BOEHRINGER INGELHEIM INTERNATIONAL GMBH, priority 2008, published 2011).
